Data from patent publication US11976075B2, “Inhibitors of the MYST family of lysine acetyl transferases” (Isosterix, Inc., priority 2022, dated 2024).

Tests used:
[1] = biological target: T1, Recombinant KAT6A/MOZ (488-778) protein (Homo sapiens, UniProt Q92794); test: Kat6a AlphaLISA Inhibition Screening Assay; assay type: biochemical; details: 60′ pre-incubation; Table 2; read-out: Kat6A biochemical assay: IC50
T1 construct: Recombinant KAT6A/MOZ (488-778) protein (Active motif, Catalog #81223); purchased Active Motif 81223
In short: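 Recombinant KAT6A (488-778), 25 nM, was preincubated with compound (10-point dose response) for 60 or 10 min. It then reacted 120 min at room temperature with 200 nM biotin-H3(1-21) peptide and 400 nM acetyl-CoA, pH 8.0, with 330 nM TSA present. Acetylation was detected by AlphaLISA (anti-acetyl-lysine acceptor, streptavidin donor beads).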

ZR-75-1 = test: In Vitro Cancer Cell Assay (cell viability, Cell Titer Glow, 10 days); assay type: cell-based; details: Homo sapiens; ZR-75-1 cells; Table 2
Method: ZR-75-1 and T47D are breast cancer cell lines containing high KAT6A protein expression. Proliferation of these cell lines are inhibited upon treatment with a KAT6A inhibitor. Cell line MCF7 is used as a negative control. MCF7 cells have a low KAT6A protein expression and are not growth inhibited upon treatment with KAT6A inhibitors. WM-1119 is used as a positive control.
1500 cells are seeded per well and incubated overnight at 37° C. and 5% CO2. Cells are treated after 24 hours with a compound (stock solution, 10 mM in DMSO) with 9-10 dilutions and a final DMSO concentration of 0.5%. […] Test compounds are tested like WM-1119. Plates are incubated at 37° C. and 5% CO2 for 10 days. Media is replenished after every alternate day. At day 10, Cell Titer Glow is added to the wells and luminescence is recorded after 10 min incubation. Data are normalized to 100% with DMSO control and subtracting media blank. Cell viability is of the test compounds is measured.
The above procedure can be followed for determining activity in additional cell lines, for example, ZR-75-1, T47D, CHAGOK1 and other cell lines that have high expression of KAT6A. The number of cells used will be optimized based on growth rate of the individual cell lines.

T1 sequence (Q92794 488-778): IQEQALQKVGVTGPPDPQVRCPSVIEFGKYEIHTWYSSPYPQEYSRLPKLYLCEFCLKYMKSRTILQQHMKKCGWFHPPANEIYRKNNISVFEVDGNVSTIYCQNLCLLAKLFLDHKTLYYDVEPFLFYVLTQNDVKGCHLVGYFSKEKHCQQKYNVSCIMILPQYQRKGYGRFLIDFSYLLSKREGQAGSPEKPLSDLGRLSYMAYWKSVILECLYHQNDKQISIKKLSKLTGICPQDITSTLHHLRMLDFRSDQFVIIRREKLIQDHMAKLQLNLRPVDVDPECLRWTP

IC50 [1]: ≤ 10 µM
EC50 (ZR-75-1): ≤ 10 µM
Compound: C#CC(=O)N1Cc2cnn(Cc3cc(OC)c4c(NS(=O)(=O)c5c(OC)cccc5OC)noc4c3)c2C1 [Synthetic Example 25A, 2,6-dimethoxy-N-(4-methoxy-6-((5-propioloyl-5,6-dihydropyrrolo[3,4-c]pyrazol-1(4H)-yl)methyl)benzo[d]isoxazol-3-yl)benzenesulfonamide]
